Source: patent publication US20100003217A1, “Compounds and Pharmaceutical Compositions for the Treatment of Viral Infections” (priority 2008, published 2010)
“And” between values parts separate entries of the source, which are not always exact repeats. Identical values can stand only once.

Key:
[1] = system: monkey primary hepatocytes; assay: Metabolic disposition of [^14C]-Compound 1 and [^14C]-2′-C-methyl guanosine in monkey primary hepatocytes (incubation medium, cellular extracts, nucleotide levels); format: in vitro ADME, Cynomolgus monkey
Experimental: (§1) Primary hepatocytes: Freshly isolated cells from animal and human liver were obtained in suspension on ice. Cells were pelleted by centrifugation at 70-75×g (rat) or 95-90×g (monkey and human) and resuspended at 0.8 million cells per mL of platting medium (William's E supplemented with 5% FBS, 0.5% penicillin-streptomycin, 1% L-glutamine, 4 μg/mL insulin and 1 μM dexamethasone). Multi-well collagen I-coated plates (rat tail collagen type I; 12- or 6-well) were then seeded by addition of 1 mL (12-well; 0.8 million cells/well) or 2 mL (6-well; 1.6 million cells/well) of cell suspension. The plates were gently shaken to evenly distribute the cells and placed in an incubator at 37° C. for approximately 4 to 6 hours to allow cells to attach. Once cells were attached, the platting medium was removed and replaced with hepatocyte culture medium (William's E supplemented with penicillin-streptomycin, 1% L-glutamine, 1% insulin-transferrin-selenium and 0.1 μM dexamethasone). Cells were left overnight in an incubator at 37° C. to acclimatize to culture and the medium.
(§2) Hepatocyte incubations with radiolabeled Compound 1 and 2′-C-methyl guanosine, both labeled in the C-8 position of the guanine moiety, were conducted at a final volume of 2.0 mL hepatocyte culture medium/well ([…]). Culture medium from overnight incubation of cells was removed and replaced with fresh medium, pre-warmed to 37° C., containing 1 or 10 μM [^14C]-Compound 1 ([…]) or [^14C]-2′-C-methyl guanosine (127 DPM/μmol) from a stock solution in DMSO (final DMSO concentration was 0.1%) or 50% ethanol (final ethanol concentration was 0.2%). After 1, 4, 8 and 24 hours, 0.5-1.0 mL of incubation medium was removed and stored at −20° C. until analysis (described below). The remaining medium was discarded and cell monolayers were carefully washed two times with ice-cold PBS. Following the last wash, all PBS was carefully removed and 1.0 mL of extraction solution (ice-cold 70% methanol) added. Cells were scrapped off and suspended in the extraction solution, transferred to 2 mL polypropylene microfuge tubes and intracellular contents extracted overnight at −20° C.
(§3) Preliminary identification of putative metabolites was conducted by comparing the retention time of observed metabolites in incubation medium and cellular extracts with retention times obtained with chemically synthesized standards using the chromatography conditions described below. Further identification of 2′-C-methyl guanosine nucleotides (mono-, di- and triphosphate) was carried out by incubating cellular extract samples with alkaline phosphatase (10 units for 60 min at 37° C.) and comparing the HPLC retention times of the resulting nucleosides with that of authentic 2′-C-methyl guanosine.
(§4) Cellular extracts were prepared by centrifugation at 16,000 RCF using an Eppendorf microcentrifuge (Eppendorf, Model 5415D) for 10 min to remove cellular debris. An aliquot of 5-10 μL of the supernatant was added to 5 mL of EcoLite™ (MP, Irvine, Calif.) liquid scintillation cocktail and radioactivity measured by liquid scintillation counting (LSC) using a Beckman Coulter LS6500 multipurpose liquid scintillation counter (Beckman Instruments, Fullerton, Calif.). The remaining sample was then dried using a Labconco refrigerated centrivap concentrator (Labconco, Kansas City, Mo.). Dry extracts were reconstituted in 120 μL of HPLC-grade water and centrifuged at 16,000 RCF using an Eppendorf microcentrifuge for 10 min. Prior to HPLC analysis (described below), radioactivity of the concentrated extracts was measured by LSC using 5 μL aliquots. Extraction recovery was then determined by comparing total radioactivity in extracts before and after drying. The remaining extract was then analyzed by HPLC with online radioactivity detection using a Flow Scintillation Analyzer Radiomatic™ 515TR. Radioactivity in the separated components was quantified by integrating the peaks using Flo-One™ Software (Perkin Elmer Life Sciences). […]

[2] = system: human primary hepatocytes; assay: Metabolic disposition of [^14C]-Compound 1 and [^14C]-2′-C-methyl guanosine in human primary hepatocytes (incubation medium, cellular extracts, nucleotide levels); format: in vitro ADME
Experimental: as §1, §2, §3, §4

[3] = monkey hepatocytes (Cy234), 10 μM [^14C]-Compound 1, 4 h
[4] = monkey hepatocytes Cy230, 10 μM [^14C]-2′-C-methyl guanosine, 1 h
[5] = monkey hepatocytes Cy230, 10 μM [^14C]-2′-C-methyl guanosine, 8 h
[6] = monkey hepatocytes Cy230, 10 μM [^14C]-2′-C-methyl guanosine, 24 h
[7] = monkey hepatocytes Cy234, 10 μM [^14C]-2′-C-methyl guanosine, 1 h
[8] = monkey hepatocytes Cy234, 10 μM [^14C]-2′-C-methyl guanosine, 4 h
[9] = monkey hepatocytes Cy234, 10 μM [^14C]-2′-C-methyl guanosine, 8 h
[10] = monkey hepatocytes Cy234, 10 μM [^14C]-2′-C-methyl guanosine, 24 h
[11] = human hepatocytes (Hu775), 1 μM [^14C]-Compound 1, 1 h
[12] = human hepatocytes (Hu775), 1 μM [^14C]-Compound 1, 8 h
[13] = human hepatocytes (Hu775), 1 μM [^14C]-Compound 1, 24 h
[14] = human hepatocytes Hu775, 1 μM [^14C]-2′-C-methyl guanosine, 1 h
[15] = human hepatocytes Hu775, 1 μM [^14C]-2′-C-methyl guanosine, 8 h
[16] = human hepatocytes Hu775, 1 μM [^14C]-2′-C-methyl guanosine, 24 h

C[C@@]1(O)[C@H](O)[C@@H](COP(=O)(O)OP(=O)(O)O)O[C@H]1n1cnc2c(=O)[nH]c(N)nc21 [Compound 6, [(2R)-2-methyl-β-D-ribofuranosyl]guanine 5′-diphosphate]
metabolites observed in cellular extracts (% of total radioactivity) ([1]; monkey hepatocytes (Cy230, Cy234), 10 μM [^14C]-Compound 1, 1 h): 9.25% and 9.65%
metabolites observed in cellular extracts (% of total radioactivity) ([1]; monkey hepatocytes (Cy230, Cy234), 10 μM [^14C]-Compound 1, 8 h): 13.8% and 14.9%
metabolites observed in cellular extracts (% of total radioactivity) ([1]; monkey hepatocytes (Cy230, Cy234), 10 μM [^14C]-Compound 1, 24 h): 18.5% and 16.0%
2′-C-methyl guanosine nucleotide levels in cellular extracts [1, 3]: 44.5 pmol/million cells
metabolites observed in cellular extracts (% of total radioactivity) [1, 3]: 17.1%
2′-C-methyl guanosine nucleotide levels in cellular extracts ([1]; monkey hepatocytes Cy230, 10 μM [^14C]-2′-C-methyl guanosine, 0 h): 0 pmol/million cells
2′-C-methyl guanosine nucleotide levels in cellular extracts [1, 4]: BLD (BLD = below limit of detection (0.02 pmol/million cells))
Major metabolites observed in cellular extracts (% of total radioactivity) [1, 4]: BLD (BLD = below limit of detection (30 DPM))
2′-C-methyl guanosine nucleotide levels in cellular extracts [1, 5]: 2.07 pmol/million cells
Major metabolites observed in cellular extracts (% of total radioactivity) [1, 5]: 2.82 % of total radioactivity
2′-C-methyl guanosine nucleotide levels in cellular extracts [1, 6]: 2.16 pmol/million cells
Major metabolites observed in cellular extracts (% of total radioactivity) [1, 6]: 8.41 % of total radioactivity
2′-C-methyl guanosine nucleotide levels in cellular extracts ([1]; monkey hepatocytes Cy230, 10 μM [^14C]-Compound 1, 0 h): 0 pmol/million cells
2′-C-methyl guanosine nucleotide levels in cellular extracts ([1]; monkey hepatocytes Cy230, 10 μM [^14C]-Compound 1, 1 h): 26.3 pmol/million cells
2′-C-methyl guanosine nucleotide levels in cellular extracts ([1]; monkey hepatocytes Cy230, 10 μM [^14C]-Compound 1, 8 h): 153 pmol/million cells
2′-C-methyl guanosine nucleotide levels in cellular extracts ([1]; monkey hepatocytes Cy230, 10 μM [^14C]-Compound 1, 24 h): 88.4 pmol/million cells
2′-C-methyl guanosine nucleotide levels in cellular extracts ([1]; monkey hepatocytes Cy234, 10 μM [^14C]-2′-C-methyl guanosine, 0 h): 0 pmol/million cells
2′-C-methyl guanosine nucleotide levels in cellular extracts [1, 7]: 0.95 pmol/million cells
Major metabolites observed in cellular extracts (% of total radioactivity) [1, 7]: 2.19 % of total radioactivity
2′-C-methyl guanosine nucleotide levels in cellular extracts [1, 8]: 5.30 pmol/million cells
Major metabolites observed in cellular extracts (% of total radioactivity) [1, 8]: 6.51 % of total radioactivity
2′-C-methyl guanosine nucleotide levels in cellular extracts [1, 9]: 7.00 pmol/million cells
Major metabolites observed in cellular extracts (% of total radioactivity) [1, 9]: 7.90 % of total radioactivity
2′-C-methyl guanosine nucleotide levels in cellular extracts [1, 10]: 15.0 pmol/million cells
Major metabolites observed in cellular extracts (% of total radioactivity) [1, 10]: 14.1 % of total radioactivity
2′-C-methyl guanosine nucleotide levels in cellular extracts ([1]; monkey hepatocytes Cy234, 10 μM [^14C]-Compound 1, 0 h): 0 pmol/million cells
2′-C-methyl guanosine nucleotide levels in cellular extracts ([1]; monkey hepatocytes Cy234, 10 μM [^14C]-Compound 1, 1 h): 6.10 pmol/million cells
2′-C-methyl guanosine nucleotide levels in cellular extracts ([1]; monkey hepatocytes Cy234, 10 μM [^14C]-Compound 1, 8 h): 91.0 pmol/million cells
2′-C-methyl guanosine nucleotide levels in cellular extracts ([1]; monkey hepatocytes Cy234, 10 μM [^14C]-Compound 1, 24 h): 111 pmol/million cells
metabolites observed in cellular extracts (% of total radioactivity) ([2]; human hepatocytes (Hu759, Hu775), 10 μM [^14C]-2′-C-methyl guanosine, 1 h): 0.51% and 0.63%
metabolites observed in cellular extracts (% of total radioactivity) ([2]; human hepatocytes (Hu759, Hu775), 10 μM [^14C]-2′-C-methyl guanosine, 4 h): 1.64% and 2.36%
metabolites observed in cellular extracts (% of total radioactivity) ([2]; human hepatocytes (Hu759, Hu775), 10 μM [^14C]-2′-C-methyl guanosine, 8 h): 4.54% and 3.46%
metabolites observed in cellular extracts (% of total radioactivity) ([2]; human hepatocytes (Hu759, Hu775), 10 μM [^14C]-2′-C-methyl guanosine, 24 h): 7.71% and 10.6%
metabolites observed in cellular extracts (% of total radioactivity) ([2]; human hepatocytes (Hu759, Hu775), 10 μM [^14C]-Compound 1, 1 h): 4.93% and 6.09%
metabolites observed in cellular extracts (% of total radioactivity) ([2]; human hepatocytes (Hu759, Hu775), 10 μM [^14C]-Compound 1, 4 h): 8.01% and 12.4%
metabolites observed in cellular extracts (% of total radioactivity) ([2]; human hepatocytes (Hu759, Hu775), 10 μM [^14C]-Compound 1, 8 h): 13.99% and 11.1%
metabolites observed in cellular extracts (% of total radioactivity) ([2]; human hepatocytes (Hu759, Hu775), 10 μM [^14C]-Compound 1, 24 h): 13.4% and 17.05%
2′-C-methyl guanosine nucleotide levels in cellular extracts ([2]; human hepatocytes (Hu775), 1 μM [^14C]-Compound 1, 0 h): BLD (BLD = below limit of detection (0.02 pmol/million cells))
2′-C-methyl guanosine nucleotide levels in cellular extracts [2, 11]: 1.40 pmol/million cells
metabolites observed in cellular extracts (% of total radioactivity) [2, 11]: 7.94%
2′-C-methyl guanosine nucleotide levels in cellular extracts [2, 12]: 7.70 pmol/million cells
metabolites observed in cellular extracts (% of total radioactivity) [2, 12]: 13.0%
2′-C-methyl guanosine nucleotide levels in cellular extracts [2, 13]: 11.2 pmol/million cells
metabolites observed in cellular extracts (% of total radioactivity) [2, 13]: 12.4%
2′-C-methyl guanosine nucleotide levels in cellular extracts ([2]; human hepatocytes Hu759, 10 μM [^14C]-2′-C-methyl guanosine, 0 h): 0 pmol/million cells
2′-C-methyl guanosine nucleotide levels in cellular extracts ([2]; human hepatocytes Hu759, 10 μM [^14C]-2′-C-methyl guanosine, 1 h): 2.10 pmol/million cells
2′-C-methyl guanosine nucleotide levels in cellular extracts ([2]; human hepatocytes Hu759, 10 μM [^14C]-2′-C-methyl guanosine, 4 h): 7.50 pmol/million cells
2′-C-methyl guanosine nucleotide levels in cellular extracts ([2]; human hepatocytes Hu759, 10 μM [^14C]-2′-C-methyl guanosine, 8 h): 22.1 pmol/million cells
2′-C-methyl guanosine nucleotide levels in cellular extracts ([2]; human hepatocytes Hu759, 10 μM [^14C]-2′-C-methyl guanosine, 24 h): 46.0 pmol/million cells
2′-C-methyl guanosine nucleotide levels in cellular extracts ([2]; human hepatocytes Hu759, 10 μM [^14C]-Compound 1, 0 h): 0 pmol/million cells
2′-C-methyl guanosine nucleotide levels in cellular extracts ([2]; human hepatocytes Hu759, 10 μM [^14C]-Compound 1, 1 h): 3.00 pmol/million cells
2′-C-methyl guanosine nucleotide levels in cellular extracts ([2]; human hepatocytes Hu759, 10 μM [^14C]-Compound 1, 4 h): 21.0 pmol/million cells
2′-C-methyl guanosine nucleotide levels in cellular extracts ([2]; human hepatocytes Hu759, 10 μM [^14C]-Compound 1, 8 h): 45.0 pmol/million cells
2′-C-methyl guanosine nucleotide levels in cellular extracts ([2]; human hepatocytes Hu759, 10 μM [^14C]-Compound 1, 24 h): 69.0 pmol/million cells
2′-C-methyl guanosine nucleotide levels in cellular extracts ([2]; human hepatocytes Hu775, 1 μM [^14C]-2′-C-methyl guanosine, 0 h): BLD (BLD = below limit of detection (0.02 pmol/million cells))
2′-C-methyl guanosine nucleotide levels in cellular extracts [2, 14]: BLD (BLD = below limit of detection (0.02 pmol/million cells))
Major metabolites observed in cellular extracts (% of total radioactivity) [2, 14]: BLD (BLD = below limit of detection (30 DPM))
2′-C-methyl guanosine nucleotide levels in cellular extracts [2, 15]: 2.70 pmol/million cells
Major metabolites observed in cellular extracts (% of total radioactivity) [2, 15]: 6.83 % of total radioactivity
2′-C-methyl guanosine nucleotide levels in cellular extracts [2, 16]: 4.00 pmol/million cells
Major metabolites observed in cellular extracts (% of total radioactivity) [2, 16]: 9.04 % of total radioactivity
2′-C-methyl guanosine nucleotide levels in cellular extracts ([2]; human hepatocytes Hu775, 10 μM [^14C]-2′-C-methyl guanosine, 0 h): 0 pmol/million cells
2′-C-methyl guanosine nucleotide levels in cellular extracts ([2]; human hepatocytes Hu775, 10 μM [^14C]-2′-C-methyl guanosine, 1 h): 2.90 pmol/million cells
2′-C-methyl guanosine nucleotide levels in cellular extracts ([2]; human hepatocytes Hu775, 10 μM [^14C]-2′-C-methyl guanosine, 4 h): 10.5 pmol/million cells
2′-C-methyl guanosine nucleotide levels in cellular extracts ([2]; human hepatocytes Hu775, 10 μM [^14C]-2′-C-methyl guanosine, 8 h): 15.0 pmol/million cells
2′-C-methyl guanosine nucleotide levels in cellular extracts ([2]; human hepatocytes Hu775, 10 μM [^14C]-2′-C-methyl guanosine, 24 h): 50.0 pmol/million cells
2′-C-methyl guanosine nucleotide levels in cellular extracts ([2]; human hepatocytes Hu775, 10 μM [^14C]-Compound 1, 0 h): 0 pmol/million cells
2′-C-methyl guanosine nucleotide levels in cellular extracts ([2]; human hepatocytes Hu775, 10 μM [^14C]-Compound 1, 1 h): 7.10 pmol/million cells
2′-C-methyl guanosine nucleotide levels in cellular extracts ([2]; human hepatocytes Hu775, 10 μM [^14C]-Compound 1, 4 h): 38.4 pmol/million cells
2′-C-methyl guanosine nucleotide levels in cellular extracts ([2]; human hepatocytes Hu775, 10 μM [^14C]-Compound 1, 8 h): 55 pmol/million cells
2′-C-methyl guanosine nucleotide levels in cellular extracts ([2]; human hepatocytes Hu775, 10 μM [^14C]-Compound 1, 24 h): 161 pmol/million cells
